Measured values taken from US4264622A, “Tetrahydro-2H-benzo[c]pyrroles to inhibit prolactin secretion” (Eli Lilly and Company, priority 1980, dated 1981).
Where a name gives a salt, the structure may show the parent alone.

Tested on: mouse
Test: toxicity on intraperitoneal dosage in the mouse
Type: in vivo
Protocol: In using the compounds of this invention to inhibit prolactin secretion or to treat Parkinson's syndrome or for other pharmacologic action, a pharmaceutically active compound according to Formula I above, or a salt thereof with a pharmaceutically-acceptable acid, is administered to a subject suffering from Parkinsonism or in need of having their prolactin level reduced in an amount effective to alleviate some of the symptoms of Parkinsonism or to reduce an elevated prolactin level. Oral administration is preferred. If parenteral administration is used, the injection is preferably by the subcutaneous route using an appropriate pharmaceutical formulation. […] In particular, with intravenous or intramuscular administration, a water soluble pharmaceutically-acceptable salt is employed. For oral administration, a pharmaceutically active compound according to Formula I either as the free base or in the form of a salt thereof can also be mixed with standard pharmaceutical excipients and loaded into empty telescoping gelatin capsules or pressed into tablets. The oral dosage range is from about 0.01 to 10 mg/kg of mammalian weight and the parenteral dose range from about 0.0025 to 2.5 mg/kg of mammalian weight.

CCCN(CCC)C1CCc2c[nH]cc2C1 (racemic) [dl-5-di-n-propylamino-4,5,6,7-tetrahydro-2H-benzo[c]pyrrole maleate]
deaths (10-30 mg/kg): no deaths
deaths (fatal dosages) (100-300 mg/kg): fatal
